Measured values reported in article PMC10820264, “Combining Experimental and Computational Methods to Produce Conjugates of Anticholinesterase and Antioxidant Pharmacophores with Linker Chemistries Affecting Biological Activities Related to Treatment of Alzheimer’s Disease” (Molecules, 2024).
Marks after values point to notes of the source that are not given here.

Legend:
[1] = target: Human erythrocyte AChE (Homo sapiens, UniProt P22303); set-up: method as in PMID 33322783; settings: cited from earlier work
[2] = ABTS radical cation scavenging assay
[3] = tested on: Porcine liver CES; set-up: method as in PMID 33322783; settings: cited from earlier work
[4] = target: equine serum BChE (Equus caballus, UniProt P81908); set-up: method as in PMID 33322783; settings: cited from earlier work
[5] = set-up: method as in PMID 33322783; settings: Trolox equivalents; cited from earlier work
[6] = set-up: method as in PMID 33322783; settings: Trolox equivalents; cited from earlier work; remark: listed apart in the source
[7] = target: peripheral anionic site of Electrophorus electricus AChE (EeAChE) (Electrophorus electricus, UniProt O42275); set-up: method as in PMID 33322783; settings: compound 20 μM; cited from earlier work
[8] = target: eqBChE (Equus caballus, UniProt P81908); set-up: method as in PMID 33322783; settings: cited from earlier work
[9] = target: AChE (Homo sapiens, UniProt P22303); set-up: method as in PMID 33322783; settings: cited from earlier work
AChE, sequence (P22303 other isoform, or with tags, fused parts or gaps): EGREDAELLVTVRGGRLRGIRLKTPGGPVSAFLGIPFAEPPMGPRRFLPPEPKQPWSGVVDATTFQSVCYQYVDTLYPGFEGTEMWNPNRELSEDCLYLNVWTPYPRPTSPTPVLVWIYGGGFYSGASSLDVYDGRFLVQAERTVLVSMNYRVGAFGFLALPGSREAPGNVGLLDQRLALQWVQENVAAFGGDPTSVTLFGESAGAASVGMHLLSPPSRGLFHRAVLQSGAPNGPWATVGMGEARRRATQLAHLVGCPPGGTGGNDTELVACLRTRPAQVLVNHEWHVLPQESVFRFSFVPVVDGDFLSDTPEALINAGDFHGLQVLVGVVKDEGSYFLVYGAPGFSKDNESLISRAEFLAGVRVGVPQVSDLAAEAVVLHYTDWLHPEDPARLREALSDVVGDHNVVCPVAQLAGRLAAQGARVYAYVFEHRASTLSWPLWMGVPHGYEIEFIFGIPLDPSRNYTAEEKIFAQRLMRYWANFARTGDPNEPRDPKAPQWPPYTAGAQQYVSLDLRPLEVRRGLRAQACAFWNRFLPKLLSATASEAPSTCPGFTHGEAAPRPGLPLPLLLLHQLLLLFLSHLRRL

Human erythrocyte AChE, sequence (P22303 other isoform, or with tags, fused parts or gaps): as above
eqBChE, sequence (P81908 whole entry): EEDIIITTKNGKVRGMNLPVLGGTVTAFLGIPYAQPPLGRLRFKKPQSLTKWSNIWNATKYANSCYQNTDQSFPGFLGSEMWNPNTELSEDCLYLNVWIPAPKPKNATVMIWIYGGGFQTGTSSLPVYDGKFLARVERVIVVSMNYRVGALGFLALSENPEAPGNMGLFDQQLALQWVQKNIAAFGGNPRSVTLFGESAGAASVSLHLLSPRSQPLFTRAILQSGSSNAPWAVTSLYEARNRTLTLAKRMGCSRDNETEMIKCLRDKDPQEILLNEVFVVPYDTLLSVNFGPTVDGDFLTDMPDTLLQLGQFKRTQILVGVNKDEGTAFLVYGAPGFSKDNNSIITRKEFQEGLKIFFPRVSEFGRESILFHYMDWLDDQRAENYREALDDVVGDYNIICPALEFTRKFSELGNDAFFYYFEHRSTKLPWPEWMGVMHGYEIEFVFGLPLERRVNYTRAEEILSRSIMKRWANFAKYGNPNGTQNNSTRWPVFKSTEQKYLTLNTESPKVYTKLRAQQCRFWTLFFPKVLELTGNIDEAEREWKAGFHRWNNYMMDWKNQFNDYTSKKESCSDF
equine serum BChE, sequence (P81908 whole entry): as above
peripheral anionic site of Electrophorus electricus AChE (EeAChE), sequence (O42275 24-633): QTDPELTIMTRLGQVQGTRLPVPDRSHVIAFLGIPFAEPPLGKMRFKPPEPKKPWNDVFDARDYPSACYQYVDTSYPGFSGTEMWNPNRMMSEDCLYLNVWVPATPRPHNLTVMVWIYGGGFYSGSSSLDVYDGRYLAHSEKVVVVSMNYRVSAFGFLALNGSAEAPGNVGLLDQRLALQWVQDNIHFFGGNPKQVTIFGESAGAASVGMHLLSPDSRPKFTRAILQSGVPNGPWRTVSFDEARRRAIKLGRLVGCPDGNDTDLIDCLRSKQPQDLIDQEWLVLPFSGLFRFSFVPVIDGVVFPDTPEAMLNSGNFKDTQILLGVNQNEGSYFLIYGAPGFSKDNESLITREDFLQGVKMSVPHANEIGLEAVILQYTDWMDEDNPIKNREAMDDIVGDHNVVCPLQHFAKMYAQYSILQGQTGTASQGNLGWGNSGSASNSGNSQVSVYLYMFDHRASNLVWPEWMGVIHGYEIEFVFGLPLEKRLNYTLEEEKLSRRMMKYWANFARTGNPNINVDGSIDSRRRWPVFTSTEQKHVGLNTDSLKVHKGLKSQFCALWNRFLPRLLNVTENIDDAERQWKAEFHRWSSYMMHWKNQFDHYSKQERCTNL

| SMILES | IC50 [1] [µM] | IC50 [2] [µM] | CES % inhibition at 20 μM [3] | IC50 [4] [µM] | ABTS•+-Scavenging Activity TEAC [5] | Ferric-Reducing Antioxidant Power TE [6] | Propidium Displacement [7] | eqBChE αKi (non-competitive inhibition constant) [8] | Ki ([8]; read-out: eqBChE Ki (competitive inhibition constant)) [µM] | AChE αKi (non-competitive inhibition constant) [9] | Ki ([9]; read-out: AChE Ki (competitive inhibition constant)) [µM] |
| --- | --- | --- | --- | --- | --- | --- | --- | --- | --- | --- | --- |
| CC(C)(C)c1cc(/C=N/CCNc2c3c(nc4ccccc24)CCC3)cc(C(C)(C)C)c1O [13a] | 4.86 ± 0.01 | 22.3 ± 1.5 | 26.1 ± 0.7% ^a,*** | 1.92 ± 0.11 | 0.92 ± 0.03 ^a | 0.51 ± 0.03 ^a,*** | 18.1 ± 1.6 ^a,*^,§ % | – | – | – | – |
| CC(C)(C)c1cc(/C=N/CCNc2c3c(nc4ccccc24)CCCCC3)cc(C(C)(C)C)c1O [15a] | 4.03 ± 0.03 | 18.8 ± 0.8 | 30.1 ± 2.5% ^a,*** | 0.419 ± 0.04 | 1.11 ± 0.04 ^a | 0.52 ± 0.01 ^a,*** | 16.3 ± 1.3 ^a % | 437 ± 10 ^b,*** nM | 0.164 ± 0.005 | 4300 ± 20 ^b,* nM | 1.58 ± 0.1 |
